Where a name gives a salt, the structure may show the parent alone. Read-outs that look alike come from different tables or passages of the source.
Molecular target: T1, human calcium receptor (Homo sapiens, UniProt P41180)
T1 construct: expressed in transfected cells
T1 sequence (P41180 20-1078): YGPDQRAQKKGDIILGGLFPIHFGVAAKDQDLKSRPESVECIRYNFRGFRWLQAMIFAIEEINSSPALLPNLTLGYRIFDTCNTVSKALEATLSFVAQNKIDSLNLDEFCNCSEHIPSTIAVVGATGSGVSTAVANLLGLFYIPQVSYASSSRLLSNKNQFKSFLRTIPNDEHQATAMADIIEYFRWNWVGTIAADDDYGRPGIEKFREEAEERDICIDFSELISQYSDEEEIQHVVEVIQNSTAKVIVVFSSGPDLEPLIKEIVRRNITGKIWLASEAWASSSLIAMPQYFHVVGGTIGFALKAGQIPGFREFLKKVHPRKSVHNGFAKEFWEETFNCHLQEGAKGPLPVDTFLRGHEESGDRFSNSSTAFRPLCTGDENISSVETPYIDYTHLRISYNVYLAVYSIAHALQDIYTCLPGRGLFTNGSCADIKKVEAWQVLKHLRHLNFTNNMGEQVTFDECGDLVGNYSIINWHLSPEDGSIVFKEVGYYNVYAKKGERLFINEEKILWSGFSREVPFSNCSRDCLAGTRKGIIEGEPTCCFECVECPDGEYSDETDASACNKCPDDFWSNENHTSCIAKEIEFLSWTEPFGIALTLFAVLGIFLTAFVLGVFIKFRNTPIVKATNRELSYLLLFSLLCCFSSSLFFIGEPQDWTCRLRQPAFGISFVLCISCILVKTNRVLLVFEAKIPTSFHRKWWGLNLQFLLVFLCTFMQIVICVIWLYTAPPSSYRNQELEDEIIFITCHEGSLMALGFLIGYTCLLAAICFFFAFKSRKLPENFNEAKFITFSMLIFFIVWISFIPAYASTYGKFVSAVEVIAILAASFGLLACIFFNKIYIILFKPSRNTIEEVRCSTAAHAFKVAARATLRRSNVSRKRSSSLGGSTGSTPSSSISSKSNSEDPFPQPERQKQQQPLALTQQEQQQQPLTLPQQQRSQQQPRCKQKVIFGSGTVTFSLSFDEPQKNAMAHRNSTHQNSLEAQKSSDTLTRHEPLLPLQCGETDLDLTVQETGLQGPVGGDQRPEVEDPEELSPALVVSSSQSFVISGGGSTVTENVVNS
Assay: Calcium Receptor Inhibitor Assay
Assay type: cell-based
Experimental: This example illustrates the use of the Calcium Receptor Inhibitor Assay. […] Res. 10 Suppl. […] Intracellular Ca^2+ was measured using fluo-3, a fluorescent calcium indicator.
The procedure was as follows:
1. Cells were maintained in T-150 flasks in selection media (DMEM supplemented with 10% fetal bovine serum and 200 μg/mL hygromycin B), under 5% CO2:95% air at 37° C. and were grown up to 90% confluency.
2. The medium was decanted and the cell monolayer was washed twice with phosphate-buffered saline (PBS) kept at 37° C. After the second wash, 6 mL of 0.02% EDTA in PBS was added and incubated for 4 minutes at 37° C. Following the incubation, cells were dispersed by gentle agitation.
3. Cells from 2 or 3 flasks were pooled and pelleted (100×g). The cellular pellet was resuspended in […] of SPF-PCB+ and pelleted again by centrifugation. This washing was done twice.
SPF-PCB was made up and stored at 4° C. On the day of use, SPF-PCB was supplemented with 1 mg/mL of D-glucose and 1 mM CaCl2 and then split into two fractions. To one fraction, bovine serum albumin (BSA; fraction V, ICN) was added at 5 mg/mL (SPF-PCB+). This buffer was used for washing, loading and maintaining the cells. The BSA-free fraction was used for diluting the cells in the cuvette for measurements of fluorescence.
5. Following the incubation period, the cells were pelleted by centrifugation. The resulting pellet was washed with SPF-PCB+. After this washing, cells were resuspended in SPF-PCB+ at a density of 1–2×10^6 cells/mL.
6. For recording fluorescent signals, 300 μL of cell suspension were diluted in 1.2 mL of SPF buffer containing 1 mM CaCl2 and 1 mg/mL of D-glucose. Measurements of fluorescence were performed at 37° C. with constant stirring using a spectrofluorimeter. […] To calibrate fluorescence signals, digitonin (5 mg/mL in ethanol) was added to obtain Fmax, and the apparent Fmin was determined by adding Tris-EGTA (2.5 M Tris-Base, 0.3 M EGTA).
7. To determine the potential calcilytic activity of test compounds, cells were incubated with test compound (or vehicle as a control) for 90 seconds before increasing the concentration of extracellular Ca^2+ from 1 to 2 mM. Calcilytic compounds were detected by their ability to block, in a concentration-dependent manner, increases in the concentration of intracellular Ca^2+ elicited by extracellular Ca^2+.

[1] = HEK 293 4.0–7 cells stably expressing the human calcium receptor, fluo-3, read-out: IC50 for blocking increases of intracellular Ca2+ elicited by extracellular Ca2+

SMILES	IC50 [1] [µM]	IC50 [µM]
COc1ccc(CC(C)(C)NC[C@@H](O)COc2ccc(C(C)(C)C)cc2)cc1 (racemic) [Compound 20, (R) and (S)—N-[2-Hydroxy-3-(4-t-butylphenoxy)propyl]-1,1-dimethyl-2-(4-methoxyphenyl)ethylamine Hydrochloride]	< 1	–
COc1ccc(CC(C)(C)NCC(O)CCc2cccc3ccccc23)cc1 (racemic) [Compound 162, (R/S)-1-[[2,2-dimethyl-(4′methoxy)phenethyl]]amino-2-hydroxy-4(1′-naphthyl)-butane]	< 10	–
COc1ccc(CC(C)(C)NCC(O)CCc2cccc(Cl)c2Cl)cc1 (racemic) [Compound 163]	–	< 1
COc1ccc(CC(C)(C)NCC(O)CCCC[N+](=O)[O-])cc1 (racemic) [Compound 164, (R/S)-1-nitro-5-hydroxy-6-[1,1-dimethyl-2-(4-methoxyphenyl)]hexane]	–	< 50
COc1ccc(CC(C)(C)NC[C@@H](O)COc2cccc3ccccc23)cc1 (single isomer, unassigned) [Compound 105, Hydrochloride]	< 1	–
COc1ccc(CC(C)(C)NC[C@H](O)COc2cccc3ccccc23)cc1 (single isomer, unassigned) [Compound 106, Hydrochloride]	< 1	–
COc1ccc(CC(C)(C)NCC(O)COc2cccc3[nH]c(O)nc23)cc1 (stereo not shown) [Compound 1]	< 50	–
CC(C)(Cc1ccc(F)cc1)NCC(O)COc1cccc2ccccc12 (stereo not shown) [Compound 2, N-[2-Hydroxy-3-(1-naphthoxy)propyl]-1,1-dimethyl-2-(4-fluorophenyl)ethylamine Hydrochloride]	< 10	–
COc1ccc(CC(C)(C)NCC(O)COc2ccccc2)cc1 (stereo not shown) [Compound 3, N-(2-Hydroxy-3-phenoxypropyl)-1,1-dimethyl-2-(4-methoxyphenyl)ethylamine Hydrochloride]	< 10	–
COc1ccc(CC(C)(C)NCC(O)COc2ccc(Cl)cc2)cc1 (stereo not shown) [Compound 5, N-[2-Hydroxy-3-(4-chlorophenoxy)propyl]-1,1-dimethyl-2-(4-methoxyphenylethylamine Hydrochloride]	< 1	–
COc1ccc(CC(C)(C)NCC(O)COc2ccc(C(C)(C)C)cc2)cc1 (stereo not shown) [Compound 6, N-[2-Hydroxy-3-(4-t-butylphenoxy)propyl]-1,1-dimethyl-2-(4-methoxyphenyl)ethylamine Hydrochloride]	< 1	–
COc1ccc(CC(C)(C)NCC(O)COc2ccc(OC)cc2)cc1 (stereo not shown) [Compound 7, N-[2-Hydroxy-3-(4-methoxyphenoxy)propyl]-1,1-dimethyl-2-(4-methoxyphenyl)ethylamine Hydrochloride]	< 10	–
COc1ccc(CC(C)(C)NCC(O)COc2ccccc2C)cc1 (stereo not shown) [Compound 8, N-[2-Hydroxy-3-(2-methylphenoxy)propyl]-1,1-dimethyl-2-(4-methoxyphenyl)ethylamine Hydrochloride]	< 10	–
COc1ccc(CC(C)(C)NCC(O)COc2cccc3[nH]c(C(N)=O)cc23)cc1 (stereo not shown) [Compound 9, N-[2-Hydroxy-3-(4-(2-carboxamido)indoloxy)propyl]-1,1-dimethyl-2-(4-methoxyphenyl)ethylamine Hydrochloride]	< 50	–
COc1ccc(CC(C)(C)NCCCOc2ccccc2)cc1 [Compound 17, N-(3-Phenoxypropyl)-1,1-dimethyl-2-(4-methoxyphenyl)ethylamine Hydrochloride]	< 50	–
COc1ccc(CC(C)(C)NCC(O)COc2cccc3ccccc23)cc1 (stereo not shown) [Compound 19, N-[2-Hydroxy-3-(1-naphthoxy)propyl]-1,1-dimethyl-2-(4-methoxyphenyl)ethylamine Hydrochloride]	< 1	–

SMILES	IC50 [1] [µM]	IC50 [µM]
COc1ccc(CC(C)(C)NCCCc2ccccc2)cc1 [Compound 22, N-(3-phenylpropyl)-1,1-dimethyl-2(4-methoxyphenyl)ethylamine]	–	> 50
COc1ccc(CC(C)(C)NCCCCc2ccccc2)cc1 [Compound 24, N-(4-phenylbutyl)-1,1-dimethyl-2-(4-methoxyphenyl)ethylamine]	–	> 50
COc1ccc(CC(C)(C)NCC(O)COC(C)(C)C)cc1 (stereo not shown) [Compound 25, N-(2-Hydroxy-3-t-butoxypropyl)-1,1-dimethyl-2-(4-methoxyphenyl)ethylamine]	–	< 50
CCCCOCC(O)CNC(C)(C)Cc1ccc(OC)cc1 (stereo not shown) [Compound 26, N-(2-Hydroxy-3-butoxypropyl)-1,1-dimethyl-2-(4-methoxyphenyl)ethylamine]	–	< 10
COc1ccc(CC(C)(C)NCC(O)COC(C)C)cc1 (stereo not shown) [Compound 27, N-(2-Hydroxy-3-isoproproxypropyl)-1,1-dimethyl-2-(4-methoxyphenyl)ethylamine]	–	< 10
CCCCC(CC)COCC(O)CNC(C)(C)Cc1ccc(OC)cc1 (stereo not shown) [Compound 28, N-[2-Hydroxy-3-(2-ethyl)hexanoxypropyl]-1,1-dimethyl-2-(4-methoxyphenyl)ethylamine]	–	< 1
C=CCOCC(O)CNC(C)(C)Cc1ccc(OC)cc1 (stereo not shown) [Compound 29, N-(2-Hydroxy-3-allyloxypropyl)-1,1-dimethyl-2-(4-methoxyphenyl)ethylamine]	–	< 50
COc1ccc(CC(C)(C)NCc2ccccc2)cc1 [Compound 34, N-(Benzyl)-1,1-dimethyl-2-(4-methoxyphenyl)ethylamine]	–	> 50
COc1ccc(CC(C)(C)NCC(O)COc2ccc3ccccc3c2)cc1 (stereo not shown) [Compound 35, N-[2-Hydroxy-3-(2-naphthoxy)propyl]-1,1-dimethyl-2-(4-methoxyphenyl)ethylamine Hydrochloride]	< 10	–
COc1ccc(CC(C)(C)NCCCCOc2ccccc2)cc1 [Compound 36, N-(4-phenoxybutyl)-1,1-dimethyl-2-(4-methoxyphenyl)ethylamine]	> 50	–
COc1ccc(CC(C)(C)NCC(O)Cc2ccccc2)cc1 (stereo not shown) [Compound 37, N-(2-Hydroxy-3-phenylpropyl)-1,1-dimethyl-2-(4-methoxyphenyl)ethylamine Hydrochloride]	–	< 10
COc1ccc(CC(C)(C)NCC(O)COc2cccc(F)c2)cc1 (stereo not shown) [Compound 39, N-[2-Hydroxy-3-(3-fluorophenoxy)propyl]-1,1-dimethyl-2-(4-methoxyphenyl)ethylamine Hydrochloride]	< 10	–
COc1ccc(CC(C)(C)NCC(O)COc2ccccc2Cl)cc1 (stereo not shown) [Compound 40, N-[2-Hydroxy-3-(2-chlorophenoxy)propyl]-1,1-dimethyl-2-(4-methoxyphenyl)ethylamine Hydrochloride]	< 1	–
COc1ccc(CC(C)(C)NCC(O)COc2ccccc2F)cc1 (stereo not shown) [Compound 41, N-[2-Hydroxy-3-(2-fluorophenoxy)propyl]-1.1-dimethyl-2-(4-methoxyphenyl)ethylamine Hydrochloride]	< 10	–
COc1ccc(CC(C)(C)NCCCOc2cccc3ccccc23)cc1 [Compound 42, N-(3-(1-napthoxy)propyl)-1,1-dimethyl-2-(4-methoxyphenyl)]	< 50	–

Source: patent US7202261B2, “Calcilytic compounds” (NPS Pharmaceuticals, Inc., priority 1996, dated 2007)
